Results published in patent publication US5294716A, “Chemical process for making angiotesin II antagonist compounds” (Imperial Chemical Industries PLC, priority 1991, dated 1994).
Where a name gives a salt, the structure may show the parent alone. Read-outs that look alike come from different tables or passages of the source.

Legend:
[1] = biological target: T1, AII receptors (guinea pig adrenal gland cell surface membranes) (Cavia porcellus, UniProt Q9WV26); test: Test A: displacement of radiolabelled AII binding to cell surface membrane fraction (guinea pig adrenal gland)
T1 construct: from tissue; host or cells: guinea pig adrenal gland, cell surface membrane fraction
T1 sequence (Q9WV26 1-359): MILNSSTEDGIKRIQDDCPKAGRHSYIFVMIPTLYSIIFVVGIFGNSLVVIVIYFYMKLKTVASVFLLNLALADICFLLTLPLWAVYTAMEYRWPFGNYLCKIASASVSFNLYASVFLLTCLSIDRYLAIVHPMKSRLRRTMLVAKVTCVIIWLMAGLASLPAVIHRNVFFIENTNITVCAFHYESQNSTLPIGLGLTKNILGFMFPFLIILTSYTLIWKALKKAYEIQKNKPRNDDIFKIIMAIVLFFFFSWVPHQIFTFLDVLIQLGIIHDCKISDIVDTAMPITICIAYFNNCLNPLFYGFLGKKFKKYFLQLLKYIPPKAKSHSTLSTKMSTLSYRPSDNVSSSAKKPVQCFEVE
Experimental: The antagonism of one or more of the physiological actions of AII and, in particular, the antagonism of the interaction of AII with the receptors which mediate its effects on a target tissue, may be assessed using one or more of the following, routine laboratory procedures: Test A: This in vitro procedure involves the incubation of the test compound initially at a concentration of 100 micromolar (or less) in a buffered mixture containing fixed concentrations of radiolabelled AII and a cell surface membrane fraction prepared from a suitable angiotensin target tissue. In this test, the source of cell surface membranes is the guinea pig adrenal gland which is well known to respond to AII. Interaction of the radiolabelled AII with its receptors (assessed as radiolabel bound to the particulate membrane fraction following removal of unbound radiolabel by a rapid filtration procedure such as is standard in such studies) is antagonized by compounds which also bind to the membrane receptor sites and the degree of antagonism (observed in the test as displacement of membrane-bound radioactivity) is determined readily by comparing the receptor-bound radioactivity in the presence of the test compound at the specified test concentration with a control value determined in the absence of the test compound. […]

[2] = system: angiotensin II-induced pressor responses; test: Test C: in vivo antagonism of angiotensin II-induced pressor responses in terminally-anaesthetised or conscious rats; conditions: Rattus norvegicus, iv, i.v. administration
From the text: The antagonism of one or more of the physiological actions of AII and, in particular, the antagonism of the interaction of AII with the receptors which mediate its effects on a target tissue, may be assessed using one or more of the following, routine laboratory procedures: Test C: This in vivo test involves using terminally-anaesthetised or conscious rats in which an arterial catheter has been implanted under anaesthesia for the measurement of changes in blood pressure. The AII antagonistic effects of the test compound following oral or parenteral administration, are assessed against angiotensin II-induced pressor responses. To ensure that the effect is specific, the effect of the test compound on vasopressin-induced pressor responses may also be determined in the same preparation.

Structure (SMILES)	IC50 ([1]; average, read-out: IC50 (concentration for 50% displacement of radiolabelled AII binding), average) [nM]	ED50 [2] [mg/kg]	IC50 ([1]; read-out: IC50 (concentration for 50% displacement of radiolabelled AII binding)) [nM]
Cc1cc(OCc2ccc(-c3ccccc3-c3nnn[nH]3)cc2)c2ccccc2n1.Cl [2-methyl-4-[(2'-(1H-tetrazol-5-yl)biphenyl-4-yl)methoxy]quinoline hydrochloride]	17	0.5	
Cc1cc(OCc2ccc(-c3ccccc3-c3nn[nH]n3)cc2)c2c(n1)CCCC2 [2-methyl-5,6,7,8-tetrahydro-4-[(2'-(1H-tetrazol-5-yl)methoxy]quinoline hydrochloride]		0.28	30
